Experimental data reported in patent publication US8906925B2, “Pyrido[4,3-B]indoles containing rigid moieties” (Medivation Technologies, Inc., priority 2008, dated 2014).

Experiments:
Long-Evans rats = assay: 5-choice serial reaction time task (5CSRTT); format: in vivo, rat; settings: 0.1, 0.3 and 1.0 mg/kg p.o.
From the text: Attention and impulsivity are characteristic of several disease states. The continuous performance test (CPT), used in humans, is capable of detecting attention deficts in a number of disorders, including attention deficit hyperactivity disorder, schizophrenia and mild cognitive impairment. The pre-clinical analogue of the CPT is the 5-choice serial reaction time task (5CSRTT). In this operant-based test, rats are required to be attentive and withhold responding while they monitor 5 apertures for the appearance of a brief stimulus light in one of the apertures. The brief illumination of the stimulus light in the 5CSRTT is analogous to the appearance of the “correct” letters in the CPT in humans. Upon observing the stimulus light, the rat must nose-poke in the corresponding aperture to receive a food reward. The 5CSRTT allows the measurement of similar behavioral responses as the CPT, including accuracy, speed of responding, impulsive and compulsive responding.
Thirteen male Long-Evans rats (275-300 g) were obtained from Harlan Laboratories, Indianapolis, Ind. At the time of testing for the current study, the rats were approximately 16-18 months old. Upon arrival, the rats were assigned unique identification numbers (tail marked). […]

[1] = biological target: human recombinant dopamine D2S receptor (Homo sapiens, UniProt P14416); assay: Dopamine D2S [35S]GTPγS functional assay (SPA, CHO membranes); format: biochemical; settings: read-out: D2S GTPgS % Inhibition
Procedure: To determine for agonist or antagonist activity of compounds of the invention in functional assays, human recombinant dopamine D2S receptor stably expressed in Chinese hamster ovary (CHO) cells (Gilliland S L and Alper R H. Naunyn-Schmiedeberg's Archives of Pharmacology. 361: 498, 2000) was used. Compounds of invention were pre-incubated with the membranes (0.05 mg/mL) and 3 µM GDP in modified HEPES buffer (20 mM HEPES, pH 7.4, 100 mM NaCl, 10 mM MgCl2, 1 mM DTT, 1 mM EDTA) for 20 min. and Scintillation Proximity Assay (SPA) beads were then added for another 60 min. at 30° C. The reaction was initiated by 0.3 nM [^35S]GTPγS for an additional 30 min. incubation period. […] Compounds were screened at […] or lower, using 0.4% DMSO as vehicle. Assay results are presented as the percent response of specific binding in Table 13.

[2] = biological target: T1, human recombinant serotonin 5-HT1B receptor (Homo sapiens, UniProt P28222); assay: 5-HT1B radioligand binding competition assay ([3H]5-CT, CHO-K1 membranes); settings: 5 μM, in duplicate, average
T1 construct: expressed in transfected cells; host or cells: CHO-K1 cell line, membrane extracts
T1 sequence (P28222 whole entry): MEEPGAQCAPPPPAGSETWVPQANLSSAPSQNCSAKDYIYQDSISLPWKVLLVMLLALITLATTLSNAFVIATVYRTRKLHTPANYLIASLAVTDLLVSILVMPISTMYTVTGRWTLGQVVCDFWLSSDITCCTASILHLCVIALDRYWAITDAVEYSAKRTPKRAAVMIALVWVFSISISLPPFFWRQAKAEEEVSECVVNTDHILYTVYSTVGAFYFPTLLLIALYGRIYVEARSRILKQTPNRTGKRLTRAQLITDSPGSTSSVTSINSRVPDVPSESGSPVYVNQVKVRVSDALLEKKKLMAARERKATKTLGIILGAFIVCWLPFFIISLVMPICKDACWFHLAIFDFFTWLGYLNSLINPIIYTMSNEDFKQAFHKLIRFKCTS

Chain of human recombinant dopamine D2S receptor (P14416 1-414 isoform P14416-2): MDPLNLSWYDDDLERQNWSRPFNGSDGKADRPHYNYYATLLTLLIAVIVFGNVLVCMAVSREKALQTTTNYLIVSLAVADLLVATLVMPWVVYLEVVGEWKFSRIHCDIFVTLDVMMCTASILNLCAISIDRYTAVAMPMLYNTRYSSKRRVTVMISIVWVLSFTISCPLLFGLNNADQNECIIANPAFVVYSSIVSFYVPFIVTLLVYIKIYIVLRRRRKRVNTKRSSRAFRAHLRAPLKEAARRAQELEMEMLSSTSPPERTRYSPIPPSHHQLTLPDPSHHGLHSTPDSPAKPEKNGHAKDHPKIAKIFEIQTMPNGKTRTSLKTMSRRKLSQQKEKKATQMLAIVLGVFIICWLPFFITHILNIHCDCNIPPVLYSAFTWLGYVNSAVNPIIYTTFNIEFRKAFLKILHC

For `C/C(=C\n1c2c(c3cc(Cl)ccc31)CN(C)CC2)c1ccncc1` [Compound 90, (E)-8-chloro-2,3,4,5-tetrahydro-2-methyl-5-(2-(pyridin-4-yl)prop-1-enyl)-1H-pyrido[4,3-b]indole], the “impulsivity-like and perserverative-like behavior” value (Long-Evans rats) was “reduces”.
For `C/C(=C\n1c2c(c3cc(Cl)ccc31)CN(C)CC2)c1ccc(F)cc1` [Compound 83, (E)-8-chloro-5-(2-(4-fluorophenyl)prop-1-enyl)-2,3,4,5-tetrahydro-2-methyl-1H-pyrido[4,3-b]indole], the inhibition at 0.001 µM ([1]; conc. 1 nM) was 15%, the inhibition at 0.003 µM ([1]; conc. 3 nM) was 45% and the inhibition at 0.01 µM ([1]; conc. 10 nM) was 56%. The inhibition at 0.03 µM ([1]; conc. 30 nM) was 74% and the inhibition at 0.1 µM ([1]; conc. 100 nM) was 91%.
For `COc1ccc(C(C)(O)Cn2c3c(c4cc(C)ccc42)CN(C)CC3)cc1` (stereo not shown) [Compound 174, 1-(2,8-dimethyl-3,4-dihydro-1H-pyrido[4,3-b]indol-5(2H)-yl)-2-(4-methoxyphenyl)propan-2-ol], the “5-HT1B (5 μM) % Binding relative to bound radioligand” value [2] was 16%.
